Measured values taken from the supplement of paper PMC8671470.

Experiments:
Conditions in all cases: 72 h
HL-60 [1] = assay: area under dose-response curve (viability, 1 nM-10 uM) (fraction (0-1)); higher = more sensitive
Method in brief: (§1)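 A rescreen of the full library used HL-60 cells in RPMI 1640 with 10% FBS on 384-well plates, run in duplicate at five tenfold concentrations (1–10,000 nM). Each screen included DMSO or 100 nM of one of three metabolic inhibitors and ran 72 h at 37 °C, 5% CO2. CellTiter-Glo viability was scaled between DMSO and 10 μM proteasome-inhibitor wells. Any area under the curve comes from four-parameter log-logistic fits with drc and PharmacoGx.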

SHI-1 [2] = assay: cell viability (% survival relative to DMSO control, bortezomib = 0%); higher = less cytotoxic
Method in brief: (§2)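 Fifteen myeloid leukaemia cell lines (10 AML, 5 CML) were seeded at a density titrated to the linear growth range into 384-well plates pre-printed with compounds at 1, 10, 100, 1000 or 10000 nM in duplicate. Plates were incubated for 72 h at 37 °C with 5% CO2. Viability was then read by CellTiter-Glo luminescence. Each value is percent survival averaged over the duplicates, with vehicle set to 100% and a 10 µM positive control to 0%.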

KCL-22 [3] = assay: as above
Method in brief: as §2

MV4-11 [4] = assay: as above
Method in brief: as §2

Mono-Mac-6 [5] = assay: as above
Method in brief: as §2

ML-2 [6] = assay: as above
Method in brief: as §2

KG-1 [7] = assay: as above
Method in brief: as §2

LAMA-84 [8] = assay: as above
Method in brief: as §2

BV-173 [9] = assay: as above
Method in brief: as §2

HL-60 [10] = assay: as above
Method in brief: as §2

HEL [11] = assay: as above
Method in brief: as §2

K-562 [12] = assay: as above
Method in brief: as §2

HL-60 [13] = assay: cell viability (% survival relative to DMSO control); higher = less cytotoxic
Method in brief: as §1

SHI-1 [14] = system: SHI-1
Method in brief: (§3)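 Each of fifteen myeloid leukaemia cell lines was seeded in RPMI 1640 at a density titrated to its linear growth range. The cells were incubated for 72 h at 37 °C and 5% CO2 with compounds at five tenfold doses from 1 to 10,000 nM, in duplicate. After ATP luminescence was normalised to vehicle and to a positive control at 10 µM, four-parameter log-logistic curves were fitted. These curves gave the IC50.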

KCL-22 [15] = system: KCL-22
Method in brief: as §3

MV4-11 [16] = system: MV4-11
Method in brief: as §3

Mono-Mac-6 [17] = system: Mono-Mac-6
Method in brief: as §3

KU-812 = system: KU-812
Method in brief: as §3

ML-2 [18] = system: ML-2
Method in brief: as §3

KG-1 [19] = system: KG-1
Method in brief: as §3

MOLM-13 = system: MOLM-13
Method in brief: as §3

LAMA-84 [20] = system: LAMA-84
Method in brief: as §3

BV-173 [21] = system: BV-173
Method in brief: as §3

HL-60 [22] = system: HL-60
Method in brief: as §3

NOMO-1 = system: NOMO-1
Method in brief: as §3

THP-1 = system: THP-1
Method in brief: as §3

HEL [23] = system: HEL
Method in brief: as §3

K-562 [24] = system: K-562
Method in brief: as §3

O[C@H]1[C@H](O)[C@@H](O)CN2CC[C@H](O)[C@H]12 [Castanospermine]
Conditions	area under dose-response curve, co-treatment: AZD3965 100 nM	area under dose-response curve, co-treatment: DMSO vehicle	area under dose-response curve, co-treatment: GSK2194069 100 nM	area under dose-response curve, co-treatment: pictilisib 100 nM	cell viability, 1 nM [%]	cell viability, 10 nM [%]	cell viability, 100 nM [%]	cell viability, 1000 nM [%]	cell viability, 10000 nM [%]
BV-173 [9]	–	–	–	–	123	105	95.9	82.4	88.4
HEL [11]	–	–	–	–	113	109	105	126	112
HL-60 [1]	< 0.0301	< 0.0301	< 0.0301	< 0.0301	–	–	–	–	–
HL-60 [10]	–	–	–	–	94.2	90.7	114	132	143
K-562 [12]	–	–	–	–	95.1	107	96.5	92.2	106
KCL-22 [3]	–	–	–	–	99	98	112	125	94.9
KG-1 [7]	–	–	–	–	120	98.4	116	99.4	104
LAMA-84 [8]	–	–	–	–	93	97.5	103	95.8	101
ML-2 [6]	–	–	–	–	115	107	103	96	94.1
MV4-11 [4]	–	–	–	–	102	106	97	95.5	107
Mono-Mac-6 [5]	–	–	–	–	100	97.3	105	95.1	97.6
SHI-1 [2]	–	–	–	–	106	98	108	125	112

cell viability [%], HL-60 [13]
Conditions	0.001 µM	0.01 µM	0.1 µM	1 µM	10 µM
co-treatment: AZD3965 100 nM	97.9	97.5	104	101	101
co-treatment: DMSO vehicle	98	100.5	96.8	98.7	101
co-treatment: GSK2194069 100 nM	77.1	91.1	103	94.2	99.09
co-treatment: pictilisib 100 nM	108	106	89.4	92.4	99.9

Conditions	IC50 (cell viability) [nM]
BV-173 [21]	> 10000
HEL [23]	> 10000
HL-60 [22]	> 10000
K-562 [24]	> 10000
KCL-22 [15]	> 10000
KG-1 [19]	> 10000
KU-812	> 10000
LAMA-84 [20]	> 10000
ML-2 [18]	> 10000
MOLM-13	> 10000
MV4-11 [16]	> 10000
Mono-Mac-6 [17]	> 10000
NOMO-1	> 10000
SHI-1 [14]	> 10000
THP-1	> 10000

O=C(/C=C/c1cccnc1)NCCCCC1CCN(C(=O)c2ccccc2)CC1 [Daporinad]
Conditions	area under dose-response curve, co-treatment: AZD3965 100 nM	area under dose-response curve, co-treatment: DMSO vehicle	area under dose-response curve, co-treatment: GSK2194069 100 nM	area under dose-response curve, co-treatment: pictilisib 100 nM	cell viability, 1 nM [%]	cell viability, 10 nM [%]	cell viability, 100 nM [%]	cell viability, 1000 nM [%]	cell viability, 10000 nM [%]
BV-173 [9]	–	–	–	–	15.7	1.15	0.0754	0.00943	0.321
HEL [11]	–	–	–	–	85.7	2.97	1.75	1.48	1.85
HL-60 [1]	0.825	0.78	0.79	0.75	–	–	–	–	–
HL-60 [10]	–	–	–	–	63.1	6.64	-0.363	-0.298	-0.289
K-562 [12]	–	–	–	–	86.5	20.4	1.83	0.861	1.37
KCL-22 [3]	–	–	–	–	83.9	10.3	1.38	1.35	1.59
KG-1 [7]	–	–	–	–	88	25.3	10.8	8.29	7.46
LAMA-84 [8]	–	–	–	–	83.1	6.18	2.02	1.79	2.17
ML-2 [6]	–	–	–	–	66	1.63	0.115	0.00307	-0.274
MV4-11 [4]	–	–	–	–	25.5	0.401	0.0312	-0.345	-0.425
Mono-Mac-6 [5]	–	–	–	–	99.2	75.4	16.7	16.4	0.909
SHI-1 [2]	–	–	–	–	86.7	107	83	68.9	75.5

cell viability [%], HL-60 [13]
Conditions	0.001 µM	0.01 µM	0.1 µM	1 µM	10 µM
co-treatment: AZD3965 100 nM	101	17.8	1.54	0.351	0.166
co-treatment: DMSO vehicle	93.6	37.7	3.2	0.816	0.766
co-treatment: GSK2194069 100 nM	86.2	31.1	2.41	0.71	1.09
co-treatment: pictilisib 100 nM	89.7	42	2.3	0.651	2.01

Conditions	IC50 (cell viability) [nM]
BV-173 [21]	< 1
HEL [23]	2.33
HL-60 [22]	1.47
K-562 [24]	3.78
KCL-22 [15]	3.31
KG-1 [19]	3.63
KU-812	3.34
LAMA-84 [20]	2.18
ML-2 [18]	1.39
MOLM-13	3.69
MV4-11 [16]	< 1
Mono-Mac-6 [17]	20.6
NOMO-1	< 1
SHI-1 [14]	> 10000
THP-1	> 10000
